Like-named read-outs stand apart in the source and are kept apart here. Bounds are passed on as bounds.

In this assay the target is human LPAR1 (Homo sapiens, UniProt Q92633). The experiment in a line: In vitro functional assay of lysophosphatidic acid receptor 1 activity (calcium flux). The assay is classed as cell-based.
Where [1] appears, read: B103 cells stably expressing human LPAR1, calcium flux (Fluo-4 NW) after lysophosphatidic acid (18:1) at EC80, 100 pM to 10 μM, read-out: LPAR1 IC50.

human LPAR1, sequence (Q92633 whole entry): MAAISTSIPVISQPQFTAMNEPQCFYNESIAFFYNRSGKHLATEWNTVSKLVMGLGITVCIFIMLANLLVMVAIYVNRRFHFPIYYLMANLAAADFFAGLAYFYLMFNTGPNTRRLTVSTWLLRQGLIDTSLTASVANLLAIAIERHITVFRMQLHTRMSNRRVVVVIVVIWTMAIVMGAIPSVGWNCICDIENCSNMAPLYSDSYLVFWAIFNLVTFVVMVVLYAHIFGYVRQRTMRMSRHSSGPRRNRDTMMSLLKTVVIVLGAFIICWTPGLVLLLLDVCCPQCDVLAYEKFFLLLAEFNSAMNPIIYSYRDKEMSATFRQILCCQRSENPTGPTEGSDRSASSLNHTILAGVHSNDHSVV

Consider `CC(=O)N1CC[C@@H]1CN(C(=O)Nc1ccc(C)nc1OC(F)F)c1ccccc1C(C)C` [Example 71, (R)-1-((1-acetylazetidin-2-yl)methyl)-3-(2-(difluoromethoxy)-6-methylpyridin-3-yl)-1-(2-isopropylphenyl)urea], for which the IC50 under setting [1] was more than 1000 nM.

Regarding `CC(=O)N1CCC(N(C(=O)Nc2ccc(C)nc2OC(F)F)c2ccccc2C(F)F)CC1` [Example 34, 1-(1-acetylpiperidin-4-yl)-3-(2-(difluoromethoxy)-6-methylpyridin-3-yl)-1-(2-(difluoromethyl)phenyl)urea], the IC50 (LPAR1 IC50) was more than 1000 nM.

For `[2H]C([2H])([2H])c1ccc(NC(=O)N(c2ccccc2C(C)C)[C@H]2CC[C@H](C(=O)O)CC2)c(OC(F)F)n1` [Example 156, trans-4-(3-(2-(difluoromethoxy)-6-(methyl-d3)pyridin-3-yl)-1-(2-isopropylphenyl)ureido)cyclohexane-1-carboxylic acid], the IC50 under setting [1] is less than 10 nM.

Regarding `CCOC(=O)N1CC(N(C(=O)Nc2ccc(C)nc2OC(F)F)c2ccccc2C(C)C)C1` [Example 78, ethyl 3-(3-(2-(difluoromethoxy)-6-methylpyridin-3-yl)-1-(2-isopropylphenyl)ureido)azetidine-1-carboxylate], under setting [1], the IC50 fell in the range of 10 to 100 nM.

Turning to `Cc1cc(OC(F)F)c(NC(=O)N(C[C@H]2C[C@H](C(=O)O)C2)c2ccccc2C(C)C)cn1` [Example 227], the IC50 under setting [1] fell in the range of 10 to 100 nM.

As for `CC(C)c1ccccc1N(C(=O)Nc1ccc(Cl)cn1)[C@H]1C[C@@H](CC(=O)O)C1` [Example 306], the IC50 under setting [1] lay in the range of 100 to 1000 nM.

As for `Cc1ccc(NC(=O)N(c2ccccc2C(C)C)[C@H]2CC[C@@H](C(C)(C)O)CC2)c(OC(F)F)n1` [Example 238, 3-(2-(difluoromethoxy)-6-methylpyridin-3-yl)-1-((1s,4s)-4-(2-hydroxypropan-2-yl)cyclohexyl)-1-(2-isopropylphenyl)urea], under setting [1], the IC50 lay within 100 to 1000 nM.

Regarding `Cc1ccc(NC(=O)N(c2ccccc2C(C)C)[C@@H]2CCC[C@H](C(=O)O)C2)c(OC(F)F)n1` [Example 287], the IC50 under setting [1] lay in the range of 100 to 1000 nM.

As to `COc1ccc(NC(=O)N(c2ccccc2C(C)C)[C@@H]2CCN(C(C)=O)C[C@@H]2F)c(OC(F)F)n1` [Example 49, 1-((3S,4R)-1-acetyl-3-fluoropiperidin-4-yl)-3-(2-(difluoromethoxy)-6-methoxypyridin-3-yl)-1-(2-isopropylphenyl)urea], for the setting “LPAR1 IC50”, the IC50 is 10 to 100 nM.

As to `CC(=O)N1CCC(N(C(=O)Nc2cc(F)c(Br)nc2OC(F)F)c2ccccc2C(C)C)CC1` [Example 217], the IC50 (LPAR1 IC50) was 10 to 100 nM.

Take `Cc1ccc(NC(=O)N(c2ccccc2C(C)C)C2CCC(NS(C)(=O)=O)CC2)c(OC(F)F)n1` (stereo not drawn) [Example 269, N-(4-(3-(2-(difluoromethoxy)-6-methylpyridin-3-yl)-1-(2-isopropylphenyl)ureido)cyclohexyl)methanesulfonamide]: the IC50 under setting [1] fell in the range of 10 to 100 nM.

Regarding `Cc1ccc(NC(=O)N(c2ccccc2C(C)C)C2CC3(C2)CS(=O)(=O)C3)c(OC(F)F)n1` [Example 21, 3-(2-(difluoromethoxy)-6-methylpyridin-3-yl)-1-(2,2-dioxido-2-thiaspiro[3.3]heptan-6-yl)-1-(2-isopropylphenyl)urea], under setting [1], the IC50 is 100 to 1000 nM.

Consider `COc1ccc(NC(=O)N(c2ccccc2C(C)C)C2CCC(=O)CC2)c(OC(F)F)n1` [Example 276, 3-(2-(difluoromethoxy)-6-methoxypyridin-3-yl)-1-(2-isopropylphenyl)-1-(4-oxocyclohexyl)urea], for which the IC50 under setting [1] is 100 to 1000 nM.

Consider `Cc1ccc(NC(=O)N(c2ccccc2C(C)C)[C@H]2CC[C@@H](c3cccnc3)CC2)c(OC(F)F)n1` [Example 260, 3-(2-(difluoromethoxy)-6-methylpyridin-3-yl)-1-(2-isopropylphenyl)-1-((1s,4s)-4-(pyridin-3-yl)cyclohexyl)urea], for which the IC50 under setting [1] is more than 1000 nM.

Take `COc1ccc(NC(=O)N(c2ccccc2C(C)C)[C@H]2CC[C@H](C(=O)O)CC2)c(OCCF)n1` [Example 315, (1r,4r)-4-(3-(2-(2-fluoroethoxy)-6-methoxypyridin-3-yl)-1-(2-isopropylphenyl)ureido)cyclohexane-1-carboxylic acid]: under setting [1], the IC50 lay in the range of 10 to 100 nM.

Turning to `Cc1ccc(NC(=O)N(c2ccccc2C(C)C)[C@H]2CC[C@@H](CC(=O)O)CC2)c(OC(F)F)n1` [Example 166, 2-((1s,4s)-4-(3-(2-(difluoromethoxy)-6-methylpyridin-3-yl)-1-(2-isopropylphenyl)ureido)cyclohexyl)acetic acid], the IC50 under setting [1] lay in the range of 10 to 100 nM.

For the molecule `Cc1ccc(NC(=O)N(c2ccccc2C(C)C)[C@H]2CC[C@@](C)(C(=O)O)CC2)c(OC(F)F)n1` [Example 308], under setting [1], the IC50 was 100 to 1000 nM.

On to `Cc1cc(OC(F)F)c(NC(=O)N(c2ccccc2C(C)C)[C@H]2CC[C@H](C(=O)O)CC2)cn1` [Example 157, trans-4-(3-(4-(difluoromethoxy)-6-methylpyridin-3-yl)-1-(2-isopropylphenyl)ureido)cyclohexane-1-carboxylic acid], for which the IC50 under setting [1] is 10 to 100 nM.

As for `Cc1ccc(NC(=O)N(c2ccccc2C(C)C)[C@H]2C[C@@H](C(N)=O)C2)c(OC(F)F)n1` [Example 187], the IC50 under setting [1] is more than 1000 nM.

With `Cc1ccc(NC(=O)N(c2ccccc2C(C)C)C2CC3(CCC(C(=O)O)CC3)C2)c(OC(F)F)n1` (stereo not drawn) [Example 249], the IC50 under setting [1] fell in the range of 10 to 100 nM.

For the molecule `COc1ccc(NC(=O)N(c2ccccc2C(C)C)[C@H]2CC[C@@H](OC)CC2)c(OC(F)F)n1` [Example 39, 3-(2-(difluoromethoxy)-6-methoxypyridin-3-yl)-1-(2-isopropylphenyl)-1-((1s,4s)-4-methoxycyclohexyl)urea], under setting [1], the IC50 fell in the range of 100 to 1000 nM.

In the case of `COC(=O)[C@H]1C[C@H](N(C(=O)Nc2cc(F)c(F)cc2OC(F)F)c2ccccc2C(C)C)C1` [Example 163, methyl (1r,3r)-3-(3-(2-(difluoromethoxy)-4,5-difluorophenyl)-1-(2-isopropylphenyl)ureido)cyclobutane-1-carboxylate], under setting [1], the IC50 was more than 1000 nM.

With `COc1ccc(NC(=O)N(c2ccccc2C(C)C)C2CCN(C(=O)CC#N)CC2)c(OC(F)F)n1` [Example 85, 1-(1-(2-cyanoacetyl)piperidin-4-yl)-3-(2-(difluoromethoxy)-6-methoxypyridin-3-yl)-1-(2-isopropylphenyl)urea], under “LPAR1 IC50”, the IC50 was in the range of 10 to 100 nM.

Turning to `CC(=O)N(C(C)=O)[C@H]1CC[C@H](N(C(=O)Nc2ccc(C)nc2OC(F)F)c2ccccc2C(C)C)CC1` [Example 265, N-acetyl-N-((1r,4r)-4-(3-(2-(difluoromethoxy)-6-methylpyridin-3-yl)-1-(2-isopropylphenyl)ureido)-cyclohexyl)acetamide], the IC50 under setting [1] was more than 1000 nM.

With `CC(=O)NC1CC(N(C(=O)Nc2ccc(C)nc2OC(F)F)c2ccccc2C(C)C)C1` (stereo not drawn) [Example 271, N-(3-(3-(2-(difluoromethoxy)-6-methylpyridin-3-yl)-1-(2-isopropylphenyl)ureido)cyclobutyl)acetamide], under setting [1], the IC50 is 100 to 1000 nM.

In the case of `COC(=O)C1CC(N(C(=O)Nc2ncc(Br)cc2OC(F)F)c2ccccc2C(C)C)C1` (stereo not drawn) [Example 177], under setting [1], the IC50 lay in the range of 10 to 100 nM.

`Cc1ccc(NC(=O)N(c2ccccc2C(C)C)[C@H]2C[C@@H](CC#N)C2)c(OC(F)F)n1` [Example 28, 1-((1r,3s)-3-(cyanomethyl)cyclobutyl)-3-(2-(difluoromethoxy)-6-methylpyridin-3-yl)-1-(2-isopropylphenyl)urea]: the IC50 under setting [1] was 10 to 100 nM.

The record behind these values is patent US20250034110A1, “LPAR1 ANTAGONISTS AND USES THEREOF” (Pipeline Therapeutics, Inc., priority 2021, published 2025).
